Test results published in paper PMC11913174 (Organic & biomolecular chemistry, 2024).

Assays:
[1] = system: 3D7 (wild-type) parasites; assay: Antiplasmodial dose-response against 3D7; format: cell-based; details: Plasmodium falciparum, 3D7, read-out: EC50 against 3D7
[2] = system: chloroquine-resistant Dd2 Plasmodium falciparum parasites; assay: SYBR Green I antiplasmodial assay against chloroquine-resistant Dd2 parasites; format: cell-based; details: DD2, read-out: EC50 against Dd2

EC50 [1]: > 100 µM
EC50 [2]: > 100 µM
Compound: COC(=O)[C@H]1[C@H]2C[C@@H]3c4[nH]c5cc(OC)ccc5c4CCN3C[C@H]2C[C@@H](OC(=O)c2cc(OC)c(OC)c(OC)c2)[C@@H]1OC [reserpine]
